Here are results for five molecules from ChEMBL document CHEMBL1649218, “New treatment option for second-stage African sleeping sickness: in vitro and in vivo efficacy of aza analogs of DB289” (Antimicrob Agents Chemother, 2009).

In brackets after ≈: the same amount, converted by molar mass. Activity calls are given as the source filed them. The calls are words filed in the database; no cut-off is given here.

Experiment [1] concerns Trypanosoma brucei rhodesiense. Description: Ratio of IC50 for melasoprol-resistant Trypanosoma brucei rhodesiense STIB900 to IC50 for wild-type Trypanosoma brucei rhodesiense […]. It counts as functional.
Experiment [2] in a line: Ratio of IC50 for Trypanosoma brucei gambiense ITMAP141267 to IC50 for wild-type Trypanosoma brucei rhodesiense […]. Type of experiment: functional.
Experiment [3] relates to Trypanosoma brucei rhodesiense. In words: Antitrypanosomal activity against melasoprol-resistant Trypanosoma brucei rhodesiense STIB900 by Alamar blue assay. It counts as functional, organism-based. (Resazurin is reduced to fluorescent resorufin, in cell work by metabolically active cells.)
Experiment [4] concerns Trypanosoma brucei gambiense. In words: Antitrypanosomal activity against Trypanosoma brucei gambiense ITMAP141267 by Alamar blue assay. It counts as functional, organism-based.
The nature of experiment [5]: Ratio of IC50 for Trypanosoma brucei gambiense K03048 to IC50 for wild-type Trypanosoma brucei rhodesiense STIB900. It counts as functional.
Experiment [6] concerns Trypanosoma brucei gambiense. Description: Ratio of IC50 for Trypanosoma brucei gambiense K03048 to IC50 for Trypanosoma brucei gambiense STIB930. Type of experiment: functional.
The nature of experiment [7]: Ratio of IC50 for Trypanosoma brucei gambiense STIB930 to IC50 for wild-type Trypanosoma brucei rhodesiense […]. Type of experiment: functional.
Experiment [8] concerns Trypanosoma brucei brucei. In words: Ratio of IC50 for Trypanosoma brucei brucei AT1KO to IC50 for Trypanosoma brucei brucei BS221. Type of experiment: functional.
For experiment [9], the system named is Trypanosoma brucei gambiense. Description: Antitrypanosomal activity against Trypanosoma brucei gambiense STIB930 by Alamar blue assay. It counts as functional, organism-based.
Experiment [10] deals with Trypanosoma brucei brucei. Description: Antitrypanosomal activity against Trypanosoma brucei brucei BS221 by Alamar blue assay. It counts as functional, organism-based.
The test system of experiment [11] is Trypanosoma brucei rhodesiense. Description: Ratio of IC50 for pentamidine-resistant Trypanosoma brucei rhodesiense STIB900 to IC50 for wild-type Trypanosoma brucei rhodesiense STIB900. It counts as functional.
Experiment [12] relates to Trypanosoma brucei rhodesiense. Description: Antitrypanosomal activity against pentamidine-resistant Trypanosoma brucei rhodesiense STIB900 by Alamar blue assay. Type of experiment: functional, organism-based.
In experiment [13] the test system is Trypanosoma brucei rhodesiense. Description: Antitrypanosomal activity against wild-type Trypanosoma brucei rhodesiense STIB900 by Alamar blue assay. Type of experiment: functional, organism-based.
The subject of experiment [14] is Trypanosoma brucei gambiense. Description: Antitrypanosomal activity against Trypanosoma brucei gambiense K03048 by Alamar blue assay. It counts as functional, organism-based.
In experiment [15] the test system is Trypanosoma brucei brucei. Description: Antitrypanosomal activity against Trypanosoma brucei brucei AT1KO by Alamar blue assay. It counts as functional, organism-based.
Experiment [16] has as its system Trypanosoma brucei rhodesiense. In words: Antitrypanosomal activity against wild-type Trypanosoma brucei rhodesiense STIB900 infected in NMRI mouse assessed as survival of mouse at 100 mg/kg, po for 4 days. Type of experiment: functional.
The subject of experiment [17] is Trypanosoma brucei rhodesiense. Description: Antitrypanosomal activity against wild-type Trypanosoma brucei rhodesiense STIB900 infected in NMRI mouse assessed as cure from infection at 100 mg/kg, po for 4 days. It counts as functional, organism-based. On the set-up: dose 100 mg/kg.
Experiment [18] has as its system Trypanosoma brucei brucei. In words: Antitrypanosomal activity against Trypanosoma brucei brucei GVR35 infected in NMRI mouse CNS model assessed as survival of mouse at 75 mg/kg, po for 5 days. It counts as functional.
The subject of experiment [19] is Trypanosoma brucei rhodesiense. In words: Antitrypanosomal activity against wild-type Trypanosoma brucei rhodesiense STIB900 infected in NMRI mouse assessed as cure from infection at 25 mg/kg, po for 4 days. Further details: dose 25 mg/kg. Type of experiment: functional, organism-based.
For experiment [20], the system named is Trypanosoma brucei rhodesiense. Description: Antitrypanosomal activity against wild-type Trypanosoma brucei rhodesiense STIB900 infected in NMRI mouse assessed as survival of mouse at 5 mg/kg, po for 4 days. It counts as functional.
The subject of experiment [21] is Trypanosoma brucei brucei. Description: Antitrypanosomal activity against Trypanosoma brucei brucei GVR35 infected in NMRI mouse CNS model assessed as survival of mouse at 100 mg/kg, po for 5 days. It counts as functional.
For experiment [22], the system named is Trypanosoma brucei brucei. Description: Antitrypanosomal activity against Trypanosoma brucei brucei GVR35 infected in NMRI mouse CNS model assessed as survival of mouse at 10 mg/kg, po for 10 days. Type of experiment: functional.
Experiment [23] relates to Trypanosoma brucei rhodesiense. Description: Antitrypanosomal activity against wild-type Trypanosoma brucei rhodesiense STIB900 infected in NMRI mouse assessed as survival of mouse at 25 mg/kg, po for 4 days. It counts as functional.
The subject of experiment [24] is Trypanosoma brucei rhodesiense. Description: Antitrypanosomal activity against wild-type Trypanosoma brucei rhodesiense STIB900 infected in NMRI mouse assessed as survival of mouse at 20 mg/kg, ip for 4 days. Type of experiment: functional. Conditions: route intraperitoneal.
The subject of experiment [25] is Trypanosoma brucei rhodesiense. In words: Antitrypanosomal activity against wild-type Trypanosoma brucei rhodesiense STIB900 infected in NMRI mouse assessed as survival of mouse at 5 mg/kg, ip for 4 days. Conditions: route intraperitoneal. It counts as functional.
Experiment [26] has as its system Trypanosoma brucei rhodesiense. In words: Antitrypanosomal activity against wild-type Trypanosoma brucei rhodesiense STIB900 infected in NMRI mouse assessed as cure from infection at 20 mg/kg, ip for 4 days. It counts as functional, organism-based. Further details: dose 20 mg/kg.
Experiment [27] concerns Trypanosoma brucei rhodesiense. Description: Antitrypanosomal activity against wild-type Trypanosoma brucei rhodesiense STIB900 infected in NMRI mouse assessed as cure from infection at 10 mg/kg, ip for 4 days. Type of experiment: functional, organism-based. Further details: dose 10 mg/kg.
For experiment [28], the system named is Trypanosoma brucei brucei. Description: Antitrypanosomal activity against Trypanosoma brucei brucei GVR35 infected in NMRI mouse CNS model assessed as cure from infection at 20 mg/kg, ip for 10 days. Type of experiment: functional, organism-based. On the set-up: dose 20 mg/kg.
For experiment [29], the system named is Trypanosoma brucei rhodesiense. In words: Antitrypanosomal activity against wild-type Trypanosoma brucei rhodesiense STIB900 infected in NMRI mouse assessed as survival of mouse at 0.5 mg/kg, ip for 4 days. Type of experiment: functional. The settings on record: route intraperitoneal.
In experiment [30] the test system is Trypanosoma brucei brucei. In words: Antitrypanosomal activity against Trypanosoma brucei brucei GVR35 infected in NMRI mouse CNS model assessed as cure from infection at 10 mg/kg, ip for 10 days. Type of experiment: functional, organism-based. On the set-up: dose 10 mg/kg.
For experiment [31], the system named is Trypanosoma brucei brucei. Description: Antitrypanosomal activity against Trypanosoma brucei brucei GVR35 infected in NMRI mouse CNS model assessed as survival of mouse at 20 mg/kg, ip for 5 days. Type of experiment: functional. Conditions: route intraperitoneal.
Experiment [32] concerns Trypanosoma brucei brucei. Description: Antitrypanosomal activity against Trypanosoma brucei brucei GVR35 infected in NMRI mouse CNS model assessed as survival of mouse at 10 mg/kg, ip for 10 days. Type of experiment: functional. The settings on record: route intraperitoneal.
The subject of experiment [33] is Trypanosoma brucei brucei. In words: Antitrypanosomal activity against Trypanosoma brucei brucei GVR35 infected in NMRI mouse CNS model assessed as survival of mouse at 20 mg/kg, ip for 10 days. It counts as functional. The settings on record: route intraperitoneal.

Consider `Nc1nc(N)nc(Nc2ccc([As]3SCC(CO)S3)cc2)n1` (stereo not drawn) [MELARSOPROL], for which the “Ratio IC50” value amounted to 42 in [1]; 2 in [2]; 2.3 in experiment [5]; 14 in experiment [6]; 3.9 in [7]; 5.2 in experiment [8]. Further, in experiment [11], the “Ratio IC50” value is listed as 20.9. Moreover, the IC50 – broadly, the concentration needed to halve the response being measured – in experiment [3] was found to be 0.0567 µg/mL; in experiment [4] it was 0.0027 µg/mL; in experiment [9], 0.0053 µg/mL; in experiment [10] it was 0.0036 µg/mL; in [12] it was 0.0282 µg/mL; in experiment [13], 0.0014 µg/mL. Besides, the results for the half-inhibitory concentration (IC50) in experiment [14] and in experiment [15] were 0.0031 µg/mL and 0.0187 µg/mL, respectively.
`N=C(NO)c1ccc(-c2ccc(-c3ccc(/C(N)=N\O)cc3)o2)cc1`: in [16], the MSD stood at 50 days. For the same molecule, in experiment [17], the result was inactive.
Regarding `CO/N=C(/N)c1ccc(-c2ccc(-c3ccc(/C(N)=N/O)cc3)o2)nc1`, the MSD in experiment [18] is over 166 days; in experiment [20] it was over 52.75 days; in experiment [16], over 60 days; in experiment [21], over 180 days; in experiment [23], over 60 days. In addition, the result in experiment [19] and in experiment [22] was Active.
Take `N=C(N)c1ccc(OCCCCCOc2ccc(C(=N)N)cc2)cc1` [PENTAMIDINE]: the “Ratio IC50” value in [1] amounted to 105.4; in experiment [2] it was 3.6; in [5], 13.1; in [7], 0.9; in experiment [8], 4.3; in [11], 113.1. Also, the IC50 turned out to be 0.124 µg/mL (≈ 0.366 µM) in experiment [3]; 0.0042 µg/mL (≈ 0.0123 µM) in [4]; 0.0011 µg/mL (≈ 0.00323 µM) in [9]; 0.0009 µg/mL (≈ 0.00264 µM) in [10]; 0.134 µg/mL (≈ 0.392 µM) in [12]; 0.0012 µg/mL (≈ 0.00352 µM) in experiment [13]. In addition, the IC50 in [14] turned out to be 0.0155 µg/mL (≈ 0.0455 µM); in [15], 0.0041 µg/mL (≈ 0.012 µM). Also, the figures for the MSD in experiment [24] and in experiment [25] were over 57.5 days and over 45 days, respectively.
Turning to `N=C(N)c1ccc(-c2ccc(-c3ccc(C(=N)N)cn3)o2)nc1`, the outcome in experiment [26], in [27] and in experiment [28] was Active. Further, the “Ratio IC50” value in [1] came to 10; in experiment [2], 2.5; in experiment [5], 6.1; in [6] it was 14; in experiment [7] it was 5.4; in experiment [8], 17.8. Besides, the “Ratio IC50” value in experiment [11] is listed as 10.5. In addition, the IC50 in experiment [3] came out at 0.0643 µg/mL (≈ 0.21 µM); in experiment [4] it was 0.0162 µg/mL (≈ 0.0529 µM); in [9], 0.0351 µg/mL (≈ 0.115 µM); in experiment [10], 0.006 µg/mL (≈ 0.0196 µM); in [12] it was 0.0679 µg/mL (≈ 0.222 µM); in experiment [14], 0.0395 µg/mL (≈ 0.129 µM). 0.106 µg/mL (≈ 0.347 µM) corresponded to half-maximal inhibition in [15] (IC50). In addition, the MSD is over 60 days in [24]; over 31 days in experiment [29]; over 132.3 days in experiment [31]; 95.6 days in experiment [32]; over 180 days in experiment [33]. Also, in [30], the result was inactive.
